# Measured values published in ChEMBL document CHEMBL1201862, “PubChem BioAssay data set” (2004).
# The source made the active and inactive calls.
# Tests used:
# [1] = molecular target: Induced myeloid leukemia cell differentiation protein Mcl-1 (Homo sapiens, UniProt Q07820); type: functional
# Genome polyprotein = Genome polyprotein (dengue virus type 2, UniProt P29990); experiment: Dengue-2 NS5 methyltransferase inhibitors, primary screen, biochemical, confirmation dose response (AID 588689); type: functional
# Sequence of Genome polyprotein (P29990 2492-3391 limits assumed): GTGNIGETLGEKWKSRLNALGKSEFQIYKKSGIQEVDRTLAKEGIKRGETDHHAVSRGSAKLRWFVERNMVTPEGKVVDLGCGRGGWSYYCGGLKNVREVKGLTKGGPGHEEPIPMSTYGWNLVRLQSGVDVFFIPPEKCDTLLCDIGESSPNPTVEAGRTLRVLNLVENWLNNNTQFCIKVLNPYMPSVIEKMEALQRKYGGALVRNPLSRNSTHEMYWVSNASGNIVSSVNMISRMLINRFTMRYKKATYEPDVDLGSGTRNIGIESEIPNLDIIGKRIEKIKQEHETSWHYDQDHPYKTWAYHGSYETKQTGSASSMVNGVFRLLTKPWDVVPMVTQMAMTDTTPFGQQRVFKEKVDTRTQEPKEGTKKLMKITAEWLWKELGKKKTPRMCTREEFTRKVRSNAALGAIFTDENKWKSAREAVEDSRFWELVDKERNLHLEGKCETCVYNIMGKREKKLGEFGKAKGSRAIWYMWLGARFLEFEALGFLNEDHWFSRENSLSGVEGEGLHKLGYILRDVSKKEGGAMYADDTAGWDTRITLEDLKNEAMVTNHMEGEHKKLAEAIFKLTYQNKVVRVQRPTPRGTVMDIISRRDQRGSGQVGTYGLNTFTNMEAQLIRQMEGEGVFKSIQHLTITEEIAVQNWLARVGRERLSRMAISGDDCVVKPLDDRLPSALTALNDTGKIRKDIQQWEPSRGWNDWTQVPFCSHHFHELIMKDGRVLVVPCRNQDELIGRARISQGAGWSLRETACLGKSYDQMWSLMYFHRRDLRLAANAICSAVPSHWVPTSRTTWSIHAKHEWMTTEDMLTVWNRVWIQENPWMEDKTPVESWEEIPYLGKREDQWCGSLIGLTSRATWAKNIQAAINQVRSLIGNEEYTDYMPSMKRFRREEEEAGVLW
# Leucine aminopeptidase = molecular target: T1, Leucine aminopeptidase (Plasmodium falciparum 3D7, UniProt Q8IL11); experiment: P. falciparum M17LAP inhibitors, primary screen, biochemical, fluorogenic H-Leu-NHMec substrate, 1536-well (AID 1619); type: functional
# T1 sequence (Q8IL11 whole entry): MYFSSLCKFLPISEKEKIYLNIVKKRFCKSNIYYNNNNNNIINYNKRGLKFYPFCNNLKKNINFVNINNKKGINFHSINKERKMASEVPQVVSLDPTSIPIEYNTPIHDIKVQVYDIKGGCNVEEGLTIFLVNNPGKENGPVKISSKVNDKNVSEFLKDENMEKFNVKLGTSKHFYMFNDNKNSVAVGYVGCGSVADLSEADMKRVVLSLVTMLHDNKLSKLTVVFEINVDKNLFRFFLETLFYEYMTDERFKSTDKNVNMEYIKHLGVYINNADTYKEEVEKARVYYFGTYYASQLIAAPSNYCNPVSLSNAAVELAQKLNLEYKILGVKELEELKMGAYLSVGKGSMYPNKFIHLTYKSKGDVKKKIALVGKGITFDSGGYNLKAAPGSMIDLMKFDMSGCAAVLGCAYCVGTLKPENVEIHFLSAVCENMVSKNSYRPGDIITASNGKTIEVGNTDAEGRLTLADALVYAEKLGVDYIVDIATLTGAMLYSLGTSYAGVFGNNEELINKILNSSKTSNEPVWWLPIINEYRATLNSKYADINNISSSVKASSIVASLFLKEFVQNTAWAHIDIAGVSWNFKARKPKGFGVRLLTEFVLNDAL
# [2] = NIH-3T3 fibroblast cytotoxicity, dose response, cytotoxicity control, cell-based, fluorescence, Alamar Blue, secondary assay (AID 2327); type: functional;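 further: NIH-3T3 mouse fibroblasts cultured with fluconazole at 8 µg/mL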
# [3] = C. albicans growth with fluconazole, confirmation, fluorescence, retest (AID 2467); type: functional, cell-based
# Vero = Vero cell cytotoxicity, cytotoxicity control for flavivirus capping enzyme inhibitors (AID 588742); type: functional; settings: Chlorocebus sabaeus
# [4] = molecular target: DNA dC->dU-editing enzyme APOBEC-3G (Homo sapiens, UniProt Q9HC16); experiment: Dose Response confirmation of small molecule APOBEC3G DNA Deaminase Inhibitors via a fluorescence-based single-stranded DNA deaminase assay. [Related pubchem assays (depositor defined):AID493012, AID493028]; type: functional
# Sequence of DNA dC->dU-editing enzyme APOBEC-3G (Q9HC16 whole entry): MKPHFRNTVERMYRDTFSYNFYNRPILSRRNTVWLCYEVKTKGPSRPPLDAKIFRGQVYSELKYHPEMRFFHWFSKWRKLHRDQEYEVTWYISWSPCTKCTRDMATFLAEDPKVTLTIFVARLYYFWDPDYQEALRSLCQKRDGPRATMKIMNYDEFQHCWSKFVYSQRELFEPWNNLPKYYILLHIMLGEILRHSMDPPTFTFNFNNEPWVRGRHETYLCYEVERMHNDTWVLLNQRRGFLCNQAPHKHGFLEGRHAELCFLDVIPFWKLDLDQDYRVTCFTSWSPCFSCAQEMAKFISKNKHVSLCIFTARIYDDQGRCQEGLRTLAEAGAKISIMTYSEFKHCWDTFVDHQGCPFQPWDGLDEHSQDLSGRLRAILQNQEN
# Prothrombin = Prothrombin (Homo sapiens, UniProt P00734); experiment: Thrombin 1536 HTS Dose Response Confirmation. [Related pubchem assays: 1046 (Thrombin 1536 HTS; hits were confirmed in this assay)]; type: functional
# [5] = inhibitors of intracellular T. cruzi replication, confirmation, NIH3T3 host cells, beta-gal luminescence (AID 2044); type: functional, cell-based;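 further: intracellular parasites grown in NIH/3T3 mouse fibroblasts as host cells; luminescent beta-galactosidase reporter signal from transgenic T. cruzi replicating inside host cells; inhibitors lower the luminescence signal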
# [6] = cytotoxicity toward NIH3T3 fibroblasts, dose response, counter-screen, cell-based, ATP luminescence, mouse fibroblasts (AID 2010); type: functional;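 further: cells exposed to compound for about 90 hours before reading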
# HeLa = experiment: HeLa cell cytotoxicity, dose response, cytotoxicity control for MITF activator project, CellTiter-Glo luminescence, cherry-pick samples (AID 540259); type: functional, cell-based; settings: Homo sapiens
# [7] = Shn3 3'UTR reporter inhibitors, dose response, cell-based, Clone20 osteoblasts, firefly luciferase, cherry-picked (AID 624132); type: functional;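 further: firefly luciferase luminescence from reporter carrying the Shn3 3'UTR in osteoblasts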
# [8] = HepG2 cell cytotoxicity, dose response, cytotoxicity control for Shn3 inhibitor project, CellTiter-Glo, cherry-picked (AID 624134); type: functional, cell-based
# [9] = control 3'UTR Renilla luciferase suppression, dose response, counter-screen for Shn3 inhibitor project, cell-based, Clone20-Shn3RL, cherry-picked (AID 624133); type: functional
# Protein Wnt-3a = Protein Wnt-3a (Mus musculus, UniProt P27467); experiment: Wnt3a-driven reporter signaling inhibition, dose response, selectivity assay for Gli-SUFU antagonist project, Wnt-LIGHT cells, luminescence (AID 651570); type: functional; settings: read-out: IC50_Mean;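 further: Wnt-LIGHT reporter cells stimulated with conditioned medium from Wnt3a-producing cells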
# [10] = intracellular Trypanosoma cruzi inhibitors in host cells – cell-based, plate reader, cherry-pick samples, set 3, dose response (AID 651818); type: functional;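 further: compounds incubated with infected cells for about four days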
# Coagulation factor XII = molecular target: T2, Coagulation factor XII (Homo sapiens, UniProt P00748); type: functional;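 further: activated factor XIIa alpha cleaving a fluorogenic AMC peptide substrate; inhibitor potency from loss of enzyme activity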
# T2 sequence (P00748 whole entry): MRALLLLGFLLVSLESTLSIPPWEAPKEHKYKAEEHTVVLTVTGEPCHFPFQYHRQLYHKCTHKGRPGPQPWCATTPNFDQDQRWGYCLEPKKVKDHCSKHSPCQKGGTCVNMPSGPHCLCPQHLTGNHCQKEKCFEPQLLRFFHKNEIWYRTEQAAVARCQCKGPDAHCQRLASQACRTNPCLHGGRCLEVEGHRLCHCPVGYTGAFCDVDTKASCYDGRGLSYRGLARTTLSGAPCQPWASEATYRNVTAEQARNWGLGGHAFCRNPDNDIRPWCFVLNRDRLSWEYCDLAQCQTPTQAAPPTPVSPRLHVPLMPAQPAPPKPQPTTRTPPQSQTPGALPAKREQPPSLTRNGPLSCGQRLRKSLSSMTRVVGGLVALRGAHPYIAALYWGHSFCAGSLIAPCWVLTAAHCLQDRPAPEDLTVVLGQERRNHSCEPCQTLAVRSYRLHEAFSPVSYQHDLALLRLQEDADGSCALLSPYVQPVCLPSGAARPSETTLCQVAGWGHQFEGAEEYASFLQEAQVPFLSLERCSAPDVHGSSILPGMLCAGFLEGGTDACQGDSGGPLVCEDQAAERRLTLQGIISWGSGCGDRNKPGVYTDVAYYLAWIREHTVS
# [11] = molecular target: T3, Microphthalmia-associated transcription factor (Homo sapiens, UniProt O75030); experiment: TRPM1 promoter luciferase signal decrease, dose response, MITF inhibitor project, cell-based, SK-MEL-5, cherry-picked, set 3 (AID 493073); type: functional
# T3 sequence (O75030 whole entry): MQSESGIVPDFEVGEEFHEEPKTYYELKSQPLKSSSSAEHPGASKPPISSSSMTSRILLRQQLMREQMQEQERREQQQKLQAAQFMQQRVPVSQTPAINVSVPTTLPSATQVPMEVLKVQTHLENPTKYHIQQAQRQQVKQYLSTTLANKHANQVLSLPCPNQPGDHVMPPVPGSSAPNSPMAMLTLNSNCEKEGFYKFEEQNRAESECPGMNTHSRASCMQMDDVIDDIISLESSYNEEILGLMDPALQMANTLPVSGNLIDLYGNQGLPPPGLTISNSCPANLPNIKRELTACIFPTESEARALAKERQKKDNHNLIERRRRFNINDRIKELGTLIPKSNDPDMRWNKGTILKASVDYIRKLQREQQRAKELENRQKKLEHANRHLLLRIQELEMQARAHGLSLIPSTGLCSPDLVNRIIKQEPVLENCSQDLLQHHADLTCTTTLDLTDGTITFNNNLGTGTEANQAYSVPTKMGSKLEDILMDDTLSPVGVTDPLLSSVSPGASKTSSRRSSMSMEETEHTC
# [12] = molecular target: T4, Polyadenylate-binding protein 1 (Homo sapiens, UniProt P11940); experiment: PABP1 MLLE–PAM2 interaction inhibitors, dose response, miRNA deadenylation inhibitor project, biochemical, fluorescence polarization, Cy5-PAM2 peptide, secondary (AID 602260); type: functional; settings: read-out: IC50_Mean
# T4 sequence (P11940 whole entry): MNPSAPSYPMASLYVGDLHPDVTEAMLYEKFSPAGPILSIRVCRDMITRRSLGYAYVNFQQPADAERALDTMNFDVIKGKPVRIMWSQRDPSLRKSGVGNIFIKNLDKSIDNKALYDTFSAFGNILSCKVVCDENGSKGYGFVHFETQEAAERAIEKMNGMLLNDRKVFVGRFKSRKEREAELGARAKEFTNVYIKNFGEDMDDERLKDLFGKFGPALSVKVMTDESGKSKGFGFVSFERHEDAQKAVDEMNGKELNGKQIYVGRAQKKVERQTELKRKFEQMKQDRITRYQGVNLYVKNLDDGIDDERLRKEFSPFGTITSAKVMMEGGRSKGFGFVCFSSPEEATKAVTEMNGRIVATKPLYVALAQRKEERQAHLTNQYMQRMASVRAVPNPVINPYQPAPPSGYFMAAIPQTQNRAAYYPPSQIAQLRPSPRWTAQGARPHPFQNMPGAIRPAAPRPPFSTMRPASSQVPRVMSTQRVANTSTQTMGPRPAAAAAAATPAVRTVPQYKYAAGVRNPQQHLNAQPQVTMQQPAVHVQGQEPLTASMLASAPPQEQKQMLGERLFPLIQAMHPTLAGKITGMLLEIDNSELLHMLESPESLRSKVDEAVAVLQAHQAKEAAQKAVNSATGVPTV
# [13] = molecular target: T4, Polyadenylate-binding protein 1; experiment: PABP1 MLLE–PAM2 binding inhibitor potency, dose response, biochemical, fluorescence polarization, FITC-PAM2 peptide (AID 602259); type: functional; settings: read-out: IC50_Mean
# H9c2 = experiment: cells; type: functional, cell-based; settings: Rattus norvegicus, H9c2, Myocardium;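 further: confirmatory concentration-response retest of ultra-high-throughput screening hits for modulation of myocardial damage; cell death induced by hydrogen peroxide oxidative stress; compound pretreatment for 60 min then peroxide exposure for 2 h; potency is for protecting the cells against peroxide damage rather than for killing them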
# Fatty acid synthase [14] = molecular target: T5, Fatty acid synthase (Homo sapiens, UniProt P49327); experiment: FAS thioesterase domain inhibitors, dose response, biochemical, endpoint fluorescence intensity, uHTS hits (AID 624327); type: functional;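 further: fluorescence from hydrolysis of an O-methyl fluorescein acyl ester substrate by the enzyme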
# T5 sequence (P49327 whole entry, the tested form may be a part): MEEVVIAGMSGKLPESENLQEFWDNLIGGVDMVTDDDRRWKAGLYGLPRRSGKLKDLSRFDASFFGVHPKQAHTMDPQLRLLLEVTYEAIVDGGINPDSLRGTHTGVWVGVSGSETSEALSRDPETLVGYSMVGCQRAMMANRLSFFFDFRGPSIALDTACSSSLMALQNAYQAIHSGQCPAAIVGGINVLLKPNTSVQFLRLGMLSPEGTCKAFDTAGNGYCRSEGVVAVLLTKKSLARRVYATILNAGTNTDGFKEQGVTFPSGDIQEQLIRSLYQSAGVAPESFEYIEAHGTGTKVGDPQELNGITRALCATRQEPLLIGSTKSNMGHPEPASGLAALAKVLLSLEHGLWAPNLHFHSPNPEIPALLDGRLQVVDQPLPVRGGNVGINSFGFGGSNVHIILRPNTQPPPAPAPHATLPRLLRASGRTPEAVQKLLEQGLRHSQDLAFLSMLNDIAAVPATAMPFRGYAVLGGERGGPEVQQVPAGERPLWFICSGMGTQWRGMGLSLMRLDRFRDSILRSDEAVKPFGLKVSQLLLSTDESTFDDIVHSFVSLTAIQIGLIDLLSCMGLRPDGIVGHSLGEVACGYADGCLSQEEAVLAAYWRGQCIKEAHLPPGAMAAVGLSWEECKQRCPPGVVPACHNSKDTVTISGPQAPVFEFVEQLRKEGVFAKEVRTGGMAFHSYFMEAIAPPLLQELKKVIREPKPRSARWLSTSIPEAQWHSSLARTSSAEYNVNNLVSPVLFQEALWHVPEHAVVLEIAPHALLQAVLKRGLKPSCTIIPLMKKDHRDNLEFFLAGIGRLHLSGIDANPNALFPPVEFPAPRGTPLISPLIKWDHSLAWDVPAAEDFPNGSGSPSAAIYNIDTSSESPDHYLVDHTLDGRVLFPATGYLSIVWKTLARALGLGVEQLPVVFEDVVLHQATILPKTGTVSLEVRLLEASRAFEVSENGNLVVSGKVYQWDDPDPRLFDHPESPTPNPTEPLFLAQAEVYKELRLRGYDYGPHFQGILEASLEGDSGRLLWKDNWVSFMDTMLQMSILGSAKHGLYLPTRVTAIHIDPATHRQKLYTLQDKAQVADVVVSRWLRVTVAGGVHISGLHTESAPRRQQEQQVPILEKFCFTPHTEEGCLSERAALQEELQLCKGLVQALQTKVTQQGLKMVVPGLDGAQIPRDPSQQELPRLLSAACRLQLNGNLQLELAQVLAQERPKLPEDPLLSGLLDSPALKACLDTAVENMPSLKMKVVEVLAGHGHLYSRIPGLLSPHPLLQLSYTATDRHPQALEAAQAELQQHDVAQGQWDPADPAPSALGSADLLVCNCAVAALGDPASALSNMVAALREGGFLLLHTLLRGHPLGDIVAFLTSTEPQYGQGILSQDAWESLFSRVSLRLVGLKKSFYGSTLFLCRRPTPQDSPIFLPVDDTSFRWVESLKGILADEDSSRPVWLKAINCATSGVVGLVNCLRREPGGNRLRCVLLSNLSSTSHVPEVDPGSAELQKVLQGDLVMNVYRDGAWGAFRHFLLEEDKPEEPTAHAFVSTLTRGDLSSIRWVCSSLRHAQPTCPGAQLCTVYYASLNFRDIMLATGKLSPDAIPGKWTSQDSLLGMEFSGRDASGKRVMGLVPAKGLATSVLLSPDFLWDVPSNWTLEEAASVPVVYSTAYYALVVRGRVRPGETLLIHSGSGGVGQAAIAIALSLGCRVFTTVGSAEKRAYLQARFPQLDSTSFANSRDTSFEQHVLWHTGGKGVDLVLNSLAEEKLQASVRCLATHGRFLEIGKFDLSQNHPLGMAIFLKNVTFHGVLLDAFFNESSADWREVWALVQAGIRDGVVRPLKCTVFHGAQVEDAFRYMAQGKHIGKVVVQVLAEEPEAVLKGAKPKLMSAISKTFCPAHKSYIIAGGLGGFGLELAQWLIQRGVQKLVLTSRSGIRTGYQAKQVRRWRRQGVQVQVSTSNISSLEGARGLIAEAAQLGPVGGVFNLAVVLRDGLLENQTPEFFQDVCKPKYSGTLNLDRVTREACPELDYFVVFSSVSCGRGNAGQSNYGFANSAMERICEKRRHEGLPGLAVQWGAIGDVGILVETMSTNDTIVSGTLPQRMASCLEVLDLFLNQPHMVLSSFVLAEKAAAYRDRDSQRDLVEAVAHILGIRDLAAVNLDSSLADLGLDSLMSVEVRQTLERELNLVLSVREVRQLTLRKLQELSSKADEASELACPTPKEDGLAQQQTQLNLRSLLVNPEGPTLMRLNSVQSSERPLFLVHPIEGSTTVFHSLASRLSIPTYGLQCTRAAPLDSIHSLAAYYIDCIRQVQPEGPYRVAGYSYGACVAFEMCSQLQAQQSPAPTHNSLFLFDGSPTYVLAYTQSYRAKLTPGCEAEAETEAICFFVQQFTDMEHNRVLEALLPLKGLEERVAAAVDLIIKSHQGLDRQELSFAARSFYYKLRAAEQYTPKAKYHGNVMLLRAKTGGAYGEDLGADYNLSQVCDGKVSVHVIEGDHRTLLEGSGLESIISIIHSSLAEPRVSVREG
# Fatty acid synthase [15] = molecular target: T5, Fatty acid synthase; experiment: FAS thioesterase domain inhibitors, dose response, biochemical, kinetic fluorescence intensity (AID 624326); type: functional;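 further: rate of fluorescence rise from hydrolysis of a fluorogenic O-methyl fluorescein ester substrate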
# cells [16] = type: functional, cell-based
# cells [17] = type: functional, cell-based; remark: listed apart in the source
# [18] = growth suppression of PTEN-null colon cells, dose response, cell-based, HCT116 PTEN knockout (AID 1047); type: functional;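 further: HCT116 colon tumor cells with PTEN knocked out; cells exposed to compound for 60 hours before readout; potency for loss of cell viability measured by luminescence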
# [19] = growth suppression of beta-catenin-knockout colon cells, dose response, cell-based, HCT116, human colon tumor (AID 1045); type: functional;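 further: HCT116 colon tumor cells with beta catenin knocked out; cells exposed to compound for 60 hours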
# Sequence of Induced myeloid leukemia cell differentiation protein Mcl-1 (Q07820 whole entry): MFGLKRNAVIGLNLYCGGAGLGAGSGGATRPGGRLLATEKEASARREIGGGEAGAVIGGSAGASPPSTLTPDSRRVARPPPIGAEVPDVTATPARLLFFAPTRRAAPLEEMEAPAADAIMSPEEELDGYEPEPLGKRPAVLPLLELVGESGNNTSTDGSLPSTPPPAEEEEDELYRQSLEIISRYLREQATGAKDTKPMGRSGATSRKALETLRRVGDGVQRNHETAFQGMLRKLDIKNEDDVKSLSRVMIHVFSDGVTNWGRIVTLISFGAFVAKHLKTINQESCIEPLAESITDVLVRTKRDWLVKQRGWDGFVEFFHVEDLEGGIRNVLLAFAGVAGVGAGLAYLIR
compound,measurement,setting,value
Cc1ccc(-c2nn(-c3ccccc3)cc2/C=C2\SC(=S)N(CC(=O)O)C2=O)cc1,IC50,[1],4.14 µM (active)
same,IC50,Genome polyprotein,36.5 µM (active)
O=C(NCc1ccco1)C(=O)c1cn(CC(=O)N2CCCCCC2)c2ccccc12,IC50,Leucine aminopeptidase,11.6 µM (active)
O=C1N=C(Nc2ccccc2Cl)S/C1=C\c1cccc([N+](=O)[O-])c1O,EC50,[2],> 150 µM (inactive)
same,EC50,[3],7.16 µM (active)
same,CC50,Vero,> 40 µM (active)
c1ccc2c(c1)OCC(c1nnc3sc(-c4ccc5c(c4)OCO5)nn13)O2 (stereo not drawn),IC50,[4],52.8 µM (active)
NC(=O)N/N=C/C=C/c1ccccc1 [PHENYLETHENYLSEMICARBAZONE],IC50,Prothrombin,> 50 µM (not active)
Cc1cc(O)n2nc(-c3ccsc3-n3c(C)ccc3C)cc2n1,IC50,[1],4.96 µM (active)
O=C(Nc1ccc(Cl)c(Cl)c1)OCc1cccnc1,EC50,[5],2.5 µM (active)
same,EC50,[6],> 30 µM (not active)
same,AC50,HeLa,39.5 µM (active)
CCOC(=O)N1CCN(C(=O)c2oc3ccc(S(=O)(=O)N4CCOCC4)cc3c2C)CC1,IC50,Prothrombin,> 50 µM (not active)
CCN(CC)S(=O)(=O)c1ccc(S(=O)(=O)N2CCCC(C(=O)NC3CC3)C2)cc1 (stereo not drawn),AC50,[7],2.9 µM (active)
same,AC50,[8],52 µM (active)
same,AC50,[9],9.46 µM (active)
same,IC50,Protein Wnt-3a,444 nM (active)
Cc1ccc(S(=O)(=O)Nc2cccc3c2O[C@@H](CN(C)Cc2ccc(-c4ccccc4)cc2)[C@@H](C)CN([C@@H](C)CO)C3=O)cc1,AC50,[10],3.36 µM (active)
Cc1ccc(NC(=O)c2ccc3ccccc3n2)cc1S(=O)(=O)N(C)C,AC50,HeLa,35.4 µM (active)
CC1=NNC(=O)C1CCC(=O)N/N=C(/C)c1ccc([N+](=O)[O-])cc1 (stereo not drawn),IC50,Leucine aminopeptidase,80.6 µM (active)
Cc1c(C(=O)Nc2ccccc2F)cnn1-c1ccccc1,AC50,HeLa,80.9 µM (active)
CCOc1ccc(-n2c(SCC(=O)Nc3cc(C)on3)nnc2-c2c[nH]c3ccccc23)cc1,IC50,Coagulation factor XII,> 50 µM (inactive)
Cc1ccc2nc3cc([N+](=O)[O-])cc([N+](=O)[O-])c3cc2c1,AC50,[11],8.46 µM (active)
same,CC50,Vero,6.28 µM (active)
same,IC50,Genome polyprotein,9.85 µM (active)
N#Cc1c(NC(=O)C2CC(c3ccccc3O)=NO2)sc2c1CCC2 (stereo not drawn),IC50,[12],> 66 µM (inactive)
same,IC50,[13],> 66 µM (inactive)
O=C(NC1CCCCCC1)c1c(O)nc2ccccc2c1O,AC50,HeLa,62.7 µM (active)
CCOCCn1c(-c2ccc(OC)cc2)nc2ccccc21,IC50,Coagulation factor XII,> 50 µM (inactive)
CCOC(=O)c1sc(=S)n(C)c1NC(=O)c1ccc(OC)cc1,IC50,[4],41.1 µM (active)
COc1ccc(S(=O)(=O)Nc2ccc3c(c2)CC(=O)N([C@@H](C)CO)C[C@@H](C)[C@@H](CN(C)Cc2ccc(C(=O)Nc4ccccc4N)cc2)O3)cc1,AC50,[10],1.62 µM (active)
CCCN1CCC(N2CCCC(C(=O)O)C2)CC1 (stereo not drawn),IC50,Prothrombin,> 50 µM (not active)
Cc1noc(C)c1S(=O)(=O)Nc1ccc2c(c1)CC(=O)N([C@@H](C)CO)C[C@H](C)[C@@H](CN(C)Cc1ccc(-c3ccccc3)cc1)O2,AC50,[10],4.33 µM (active)
Cc1ccccc1NC(=O)c1ccc(NC(=O)C2CC(=O)OC23CCCCC3)cc1 (stereo not drawn),IC50,Prothrombin,> 50 µM (not active)
C[C@@H]1CN([C@@H](C)CO)C(=O)c2cccc(NC(=O)Nc3ccc(C(F)(F)F)cc3)c2O[C@@H]1CN(C)Cc1ccc(C(F)(F)F)cc1,AC50,[10],3.89 µM (active)
COc1ccc(/C=C(\C#N)c2n[nH]c(Cn3cncn3)n2)cc1,IC50,Coagulation factor XII,> 50 µM (inconclusive)
Cc1ccc(-c2nnc3ccc(SCC(=O)N4CCCc5ccccc54)nn23)cc1,IC50,H9c2,38.4 µM (inactive)
same,IC50,Fatty acid synthase [14],4.07 µM (active)
same,IC50,Fatty acid synthase [15],5.68 µM (active)
CC1CCCN(c2c([N+](=O)[O-])c(=O)oc3ccccc23)C1 (stereo not drawn),IC50,cells [16],> 29.9 µM (inactive)
same,EC50,cells [17],> 29.9 µM (inactive)
COc1ccc(NC(=S)NC(=O)c2ccccc2)cn1,IC50,[12],> 66 µM (inactive)
same,IC50,[13],> 66 µM (inactive)
O=C(CSc1nc2c(c(=O)n1-c1ccc(F)cc1)SCC2)NCc1ccco1,IC50,[12],> 66 µM (inactive)
same,IC50,[13],> 66 µM (inactive)
Oc1ccc(/N=C/C=C/c2ccc(Br)cc2)cc1-c1nc2ccccc2s1,EC50,[18],28.8 µM (active)
same,EC50,[19],22.4 µM (active)
CCOc1ccc(N(CC(=O)Nc2cccc(F)c2)S(=O)(=O)c2c(C)noc2C)cc1,IC50,Coagulation factor XII,> 50 µM (inactive)
